Reference: patent US9445594B2, “Molecules having certain pesticidal utilities, intermediates, compositions, and processes, related thereto” (priority 2014, dated 2016)

Legend:
Format in all cases: in vivo
[1] = test system: Beet Armyworm (Spodoptera exigua, LAPHEG) ("BAW"); assay: Bioassays on BAW, 128-well diet tray assay; conditions: 168 h, second instar larvae, 50 μg/cm^2 on artificial diet, 25° C., five to seven days, average of eight wells, read-out: BAW % Control (or Mortality) rating
Procedure, shortened: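 One to five second-instar larvae were placed per well on artificial diet surface-treated with 50 μg/cm^2 compound from 90:10 acetone-water, dried before infestation. Trays were held at 25 °C, 14:10 light-dark, for five to seven days. Percent mortality was averaged over eight wells.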

[2] = test system: Corn Earworm (Helicoverpa zea, HELIZE) ("CEW"); assay: Bioassays on CEW, 128-well diet tray assay; conditions: 168 h, second instar larvae, 50 μg/cm^2 on artificial diet, 25° C., five to seven days, average of eight wells, read-out: CEW % Control (or Mortality) rating
Procedure: Certain molecules disclosed in this document were tested against BAW, CEW, and CL using procedures described in the following examples. In the reporting of the results, the “BAW, CEW, & CL Rating Table” was used (See Table Section).
Bioassays on CEW were conducted using a 128-well diet tray assay. one to five second instar CEW larvae were placed in each well (3 mL) of the diet tray that had been previously filled with 1 mL of artificial diet to which 50 μg/cm^2 of the test compound (dissolved in 50 μL of 90:10 acetone-water mixture) had been applied (to each of eight wells) and then allowed to dry. Trays were covered with a clear self-adhesive cover, and held at 25° C., 14:10 light-dark for five to seven days. Percent mortality was recorded for the larvae in each well; activity in the eight wells was then averaged. The results are indicated in the table entitled “Table ABC: Biological Results” (See Table Section). Bioassays on CL

[3] = test system: Green Peach Aphid (Myzus persicae, MYZUPE) ("GPA"); assay: Bioassays on GPA, foliar spray of infested cabbage seedlings; conditions: 72 h, 200 ppm spray on cabbage seedlings, graded after three days, Abbott corrected % control, read-out: GPA % Control (or Mortality) rating
Procedure, shortened: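 Cabbage seedlings (2-3 true leaves) infested with 20-50 wingless adult and nymph aphids one day before spraying to runoff at 200 ppm in aqueous 0.025% Tween 20 with 20% acetone/methanol. Live aphids counted after three days at ~25 °C; % control by Abbott's correction versus solvent-check plants.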

[4] = test system: Yellow Fever Mosquito (Aedes aegypti, AEDSAE) ("YFM"); assay: Bioassays on YFM, 96-well plate larval assay; conditions: about 1 day-old larvae, from 4000 ppm DMSO master plate diluted, room temperature, scored after 3 days
Procedure, shortened: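 Compounds from 4000 ppm DMSO master plates, diluted in 90:10 water:acetone, dispensed into 96-well plates, six replicates. About 1-day-old larvae added in liver-powder water. Wells covered, held 3 days at room temperature, then scored for mortality.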

[5] = test system: Cabbage Looper (Trichoplusia ni, TRIPNI) ("CL"); assay: Bioassays on CL, 128-well diet tray assay; conditions: 168 h, second instar larvae, 50 μg/cm^2 on artificial diet, 25° C., five to seven days, average of eight wells, read-out: CL % Control (or Mortality) rating
Procedure, shortened: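 Second-instar larvae (one to five per well) on artificial diet surface-treated with 50 μg/cm^2 compound in 90:10 acetone-water, eight wells per treatment. Held at 25° C., 14:10 light-dark for five to seven days. Percent mortality scored per well and averaged over the eight wells.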

Structure (SMILES): CCOC(=O)c1ccc(NC(=O)Nc2ccc(-c3ncn(-c4ccc(OC(F)(F)F)cc4)n3)cc2)c(C)n1 [F41, Ethyl 6-methyl-5-(3-(4-(1-(4-(trifluoromethoxy)phenyl)-1H-1,2,4-triazol-3-yl)phenyl)ureido)picolinate]
- mortality at 50 µg/cm2 [1]: 0%
- mortality at 50 µg/cm2 [2]: 0%
- mortality at 200 ppm [3]: 0%

Structure (SMILES): CCOc1ccc(NC(=O)Nc2ccc(-c3ncn(-c4ccc(OC(F)(F)F)cc4)n3)cc2)cn1 [F8, 1-(6-Ethoxypyridin-3-yl)-3-(4-(1-(4-(trifluoromethoxy)phenyl)-1H-1,2,4-triazol-3-yl)phenyl)urea]
- mortality at 50 µg/cm2 [1]: 0%
- mortality at 50 µg/cm2 [2]: 0%
- mortality at 200 ppm [3]: 0%

Structure (SMILES): CCOc1ccc(NC(=O)Nc2ccc(-c3ncn(-c4ccc(OC(F)(F)F)cc4)n3)cc2)cc1 [F2, 1-(4-ethoxyphenyl)-3-(4-(1-(4-(trifluoromethoxy)phenyl)-1H-1,2,4-triazol-3-yl)phenyl)urea]
- mortality at 50 µg/cm2 [1]: 0%
- mortality at 50 µg/cm2 [2]: 0%
- mortality at 200 ppm [3]: 0%

Structure (SMILES): Cc1ccc(C)n1-c1ccccc1NC(=S)Nc1ccc(-c2ncn(-c3ccc(OC(F)(F)F)cc3)n2)cc1 [F75, 1-(2-(2,5-Dimethyl-1H-pyrrol-1-yl)phenyl)-3-(4-(1-(4-(trifluoromethoxy)phenyl)-1H-1,2,4-triazol-3-yl)phenyl)thiourea]
- mortality at 50 µg/cm2 [1]: 50 to 100%
- mortality at 50 µg/cm2 [2]: 50 to 100%
- mortality at 200 ppm [3]: 0%
- YFM % Control (or Mortality) rating [4]: D (No activity noticed in this bioassay)
- mortality at 50 µg/cm2 [5]: 50 to 100%

Structure (SMILES): COc1ccc(NC(=S)NCc2ccc(-c3ncn(-c4ccc(OC(F)(F)C(F)(F)F)cc4)n3)cc2)c(C)c1 [F111, 1-(4-methoxy-2-methylphenyl)-3-(4-(1-(4-(perfluoroethoxy)phenyl)-1H-1,2,4-triazol-3-yl)benzyl)thiourea]
- mortality at 50 µg/cm2 [1]: 50 to 100%
- mortality at 50 µg/cm2 [2]: 50 to 100%
- mortality at 200 ppm [3]: 0%
- YFM % Control (or Mortality) rating [4]: A (80-100)

Structure (SMILES): Cc1nc(Cl)ccc1NC(=O)Nc1ccc(-c2ncn(-c3ccc(OC(F)(F)F)cc3)n2)cc1 [F36, 1-(6-Chloro-2-methylpyridin-3-yl)-3-(4-(1-(4-(trifluoromethoxy)phenyl)-1H-1,2,4-triazol-3-yl)phenyl)urea]
- mortality at 50 µg/cm2 [1]: 50 to 100%
- mortality at 50 µg/cm2 [2]: 50 to 100%
- mortality at 200 ppm [3]: 0 to 80%

Structure (SMILES): COc1ccc(NC(=S)NCc2ccc(-c3ncn(-c4ccc(OC(F)(F)C(F)(F)F)cc4)n3)cc2)cc1 [F110, 1-(4-methoxyphenyl)-3-(4-(1-(4-(perfluoroethoxy)phenyl)-1H-1,2,4-triazol-3-yl)benzyl)thiourea]
- mortality at 50 µg/cm2 [1]: 50 to 100%
- mortality at 50 µg/cm2 [2]: 0%
- mortality at 200 ppm [3]: 0%
- YFM % Control (or Mortality) rating [4]: D (No activity noticed in this bioassay)

Structure (SMILES): CN(C)c1ccc(NC(=S)NCc2ccc(-c3ncn(-c4ccc(OC(F)(F)C(F)(F)F)cc4)n3)cc2)cc1 [F112, 1-(4-(Dimethylamino)phenyl)-3-(4-(1-(4-(perfluoroethoxy)phenyl)-1H-1,2,4-triazol-3-yl)benzyl)thiourea]
- mortality at 50 µg/cm2 [1]: 0 to 50%
- mortality at 50 µg/cm2 [2]: 0%
- mortality at 200 ppm [3]: 0%
- YFM % Control (or Mortality) rating [4]: D (No activity noticed in this bioassay)

Structure (SMILES): FC(F)(F)Oc1ccc(-n2cnc(-c3ccc(NC(=S)Nc4ccccc4Cc4ccccc4)cc3)n2)cc1 [F58, 1-(2-Benzylphenyl)-3-(4-(1-(4-(trifluoromethoxy)phenyl)-1H-1,2,4-triazol-3-yl)phenyl)thiourea]
- mortality at 50 µg/cm2 [1]: 50 to 100%
- mortality at 50 µg/cm2 [2]: 50 to 100%
- YFM % Control (or Mortality) rating [4]: D (No activity noticed in this bioassay)
- mortality at 50 µg/cm2 [5]: 50 to 100%

Structure (SMILES): CC(=O)N(C(=S)Nc1cccc(C)c1)c1ccc(-c2ncn(-c3ccc(OC(F)(F)F)cc3)n2)cc1 [F67, N-(m-tolylcarbamothioyl)-N-(4-(1-(4-(trifluoromethoxy)phenyl)-1H-1,2,4-triazol-3-yl)phenyl)acetamide]
- mortality at 50 µg/cm2 [1]: 0 to 50%
- mortality at 50 µg/cm2 [2]: 0%
- mortality at 200 ppm [3]: 0%
- YFM % Control (or Mortality) rating [4]: D (No activity noticed in this bioassay)

Structure (SMILES): COc1ccc(NC(=O)Nc2ccc(-c3ncn(-c4ccc(OC(F)(F)F)cc4)n3)cc2)cn1 [F10, 1-(6-Methoxypyridin-3-yl)-3-(4-(1-(4-(trifluoromethoxy)phenyl)-1H-1,2,4-triazol-3-yl)phenyl)urea]
- mortality at 50 µg/cm2 [1]: 50 to 100%
- mortality at 50 µg/cm2 [2]: 50 to 100%
- mortality at 200 ppm [3]: 0 to 80%

Structure (SMILES): CC(C)n1cnnc1-c1ccccc1NC(=S)Nc1ccc(-c2ncn(-c3ccc(OC(F)(F)F)cc3)n2)cc1 [F48, 1-(2-(4-isopropyl-4H-1,2,4-triazol-3-yl)phenyl)-3-(4-(1-(4-(trifluoromethoxy)phenyl)-1H-1,2,4-triazol-3-yl)phenyl)thiourea]
- mortality at 50 µg/cm2 [1]: 50 to 100%
- mortality at 50 µg/cm2 [2]: 0 to 50%
- YFM % Control (or Mortality) rating [4]: A (80-100)
- mortality at 50 µg/cm2 [5]: 50 to 100%

Structure (SMILES): FC(F)(F)Oc1ccc(-n2cnc(-c3ccc(NC(=S)Nc4ccccc4-c4noc(C5CC5)n4)cc3)n2)cc1 [F23, 1-(2-(5-Cyclopropyl-1,2,4-oxadiazol-3-yl)phenyl)-3-(4-(1-(4-(trifluoromethoxy)phenyl)-1H-1,2,4-triazol-3-yl)phenyl)thiourea]
- mortality at 50 µg/cm2 [1]: 50 to 100%
- mortality at 50 µg/cm2 [2]: 50 to 100%
- YFM % Control (or Mortality) rating [4]: A (80-100)
- mortality at 50 µg/cm2 [5]: 50 to 100%

Structure (SMILES): CC(C)c1ccccc1NC(=S)Nc1ccc(-c2ncn(-c3ccc(C(F)(F)F)cc3)n2)cc1 [F53, 1-(2-isopropylphenyl)-3-(4-(1-(4-(trifluoromethyl)phenyl)-1H-1,2,4-triazol-3-yl)phenyl)thiourea]
- mortality at 50 µg/cm2 [1]: 50 to 100%
- mortality at 50 µg/cm2 [2]: 50 to 100%
- mortality at 200 ppm [3]: 0 to 80%
- YFM % Control (or Mortality) rating [4]: A (80-100)
